Read-outs that look alike come from different tables or passages of the source.

Data set [1] addresses T1, OATP1C1 (Homo sapiens, UniProt Q9NYB5).
T1 construct: host or cells: CHO-K1
T1 sequence (Q9NYB5 1-712): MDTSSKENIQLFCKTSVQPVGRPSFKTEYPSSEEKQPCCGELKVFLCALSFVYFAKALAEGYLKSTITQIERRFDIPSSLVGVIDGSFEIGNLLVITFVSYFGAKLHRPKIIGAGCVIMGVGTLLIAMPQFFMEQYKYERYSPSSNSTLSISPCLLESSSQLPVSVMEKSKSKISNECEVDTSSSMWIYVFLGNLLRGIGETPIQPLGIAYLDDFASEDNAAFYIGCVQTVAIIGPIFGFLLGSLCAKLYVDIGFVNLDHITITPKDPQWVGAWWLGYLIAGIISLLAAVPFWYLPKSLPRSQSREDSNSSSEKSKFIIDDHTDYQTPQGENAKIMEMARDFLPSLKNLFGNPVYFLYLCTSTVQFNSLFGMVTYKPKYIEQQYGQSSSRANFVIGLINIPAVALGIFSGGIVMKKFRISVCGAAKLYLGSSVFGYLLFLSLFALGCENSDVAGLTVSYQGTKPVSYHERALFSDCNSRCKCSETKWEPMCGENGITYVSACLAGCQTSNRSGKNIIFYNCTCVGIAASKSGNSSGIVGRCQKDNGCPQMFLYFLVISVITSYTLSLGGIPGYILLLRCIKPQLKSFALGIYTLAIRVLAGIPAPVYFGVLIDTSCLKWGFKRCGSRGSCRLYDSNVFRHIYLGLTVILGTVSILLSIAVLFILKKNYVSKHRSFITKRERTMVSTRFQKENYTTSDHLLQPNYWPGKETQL
In words: CHO-K1 OATP1C1 TH uptake assay with 125I-T4 tracer. Type of data set: cell-based. The method, then:
(§1) MDCK-OAT4 and MDCK-DEST cells were cultured in DMEM:F12 (L-glutamine, 15 mM HEPES) (Gibco) supplemented with (100 µg/mL penicillin + 100 µg/mL streptomycin), 10% fetal calf serum (Gibco) and 2 µg/mL blasticidin (Sigma). CHO-K1 OATP1C1 or WT cells were cultured in F12 nutrient mix (Gibco) supplemented with (100 µg/mL penicillin + 100 µg/mL streptomycin), 10% fetal calf serum (Gibco) and […] G418 (Sigma). All cell cultures were incubated at 37 °C with 5% CO2 saturation until 80% confluency. MDCK-OAT4 and MDCK-DEST cells were seeded in 96 wells plate at a density of 4 × 10^5 cells in 100 µL medium per well and incubated for 24 h before the start of the MDCK-OAT4 TH uptake assay. CHO-K1 OATP1C1 and WT cells were seeded in 96 wells plate at a density of 3 × 10^5 cells in 100 µL medium per well 72 h before the CHO-K1 OATP1C1 TH uptake assay. Medium from CHO-K1 OATP1C1 or WT assay plates was changed to serum-free F12 medium containing 5 mM sodium-butyrate 24 h before start of the CHO-K1 OATP1C1 TH uptake assay to increase transfected expression of SV-40 promotor plasmids.
(§2) Subsequently 10 µL of a tenfold stock of test compound in uptake buffer (solvent concentration 1% v/v) was added to each well. […] Cells were exposed at 37 °C for 20 min (MDCK-OAT4) or 30 min (CHO-K1 OATP1C1), unless stated differently. After exposure, cells were immediately washed with ice-cold PBS supplemented with 0.1% bovine serum albumin (BSA). Subsequently, cells were lysed in 50 µL of 0.1 M NaOH under continuous shaking at room temperature. After 20 min, cell lysates were manually transferred into separate 5 mL polypropylene tubes. One tube was also prepared with 10 µL of the T4 tracer solution. Radioactivity was measured in a Wizard^2 gamma counter (Perkin Elmer).
(§3) For the CHO-K1 OATP1C1 TH uptake assay total of 29 chemicals (Table 1) were selected for the EDC screening based on available literature data. […] The same chemicals were selected for the MDCK-OAT4 TH uptake assay, with the exception of BPF, VRP and TCS. […] The THTMT TH uptake assay was then performed as described earlier. […] A concentration of 100 µM ICG was used as a reference chemical for OATP1C1 and 100 µM LESI for OAT4. At least three independent experiments were performed for each chemical.
(§4) Raw values were normalized to the total amount of radioactivity in the T4 tracer solution. These values were expressed as a percentage of total radioactivity added (or uptake percentage) and used for all further data analysis. Statistically significant differences between the T4 uptake of transfected and wild type cells, in the presence or absence of inhibitor, were determined by two-way ANOVA (α = 5%, two-sided). […] In brief, uptake values were normalized to the median response of the vehicle and positive controls for each plate. […] Statistical analysis were performed using GraphPad Prism version 8 for Windows (GraphPad Software, San Diego, California USA) and SAS 9.3 (SAS Institute, Cary NC).

Another data set relates to CHO-K1 OATP1C1 cells. The note with it: for cytotoxic effects: at concentrations of the uptake assay, Figure S1; for Cytotoxicity IC10: concentration that inhibits cell viability by 10%, CHO-K1 OATP1C1 cells, 30 min exposure. The method, then: (§5) Cell viability was assessed through the quantitation of ATP present in cells using the commercially available CellTiter-Glo® luminescent cell viability assay and performed according to the manufacturer’s instruction (Promega, Leiden, the Netherlands). Briefly, cells were seeded as described earlier in opaque-walled clear-bottom 96 well plates. On the day of the experiment, each well was washed with 200 µL phosphate buffered saline (PBS) and exposed to 80 µL of uptake buffer, 10 µL of a tenfold stock of test compound solved in uptake buffer or control and 10 µL of T4 (final concentration 10 nM). 0.1% DMSO was used as a solvent control, while 10% DMSO was used as a positive control. After exposure for the indicated times similar to THTMT TH uptake assay, cells were immediately washed with ice-cold PBS + 0.1%BSA and exposed to 100 µL of the CellTiter-Glo® Reagent. Plates were then shaken on an orbital shaker for 2 min and left to incubate at room temperature for 10 min. Luminescence was measured on a BioTek Cytation 5 microplate reader. […] Each individual experiment was repeated at least twice and contained three technical replicates of each control and concentration tested.
Figure S1. […] Blue dots indicate the plate medians from three or four independent experiments, all control and chemical concentrations were tested in triplicates per plate.

For a further data set, the target named is T2, OAT4 (Homo sapiens, UniProt Q9NSA0).
T2 construct: V5 (from pLenti6/V5-DEST); expressed in transfected cells; host or cells: MDCK-1 (lentiviral transduction, blasticidin selection)
T2 sequence (Q9NSA0 1-550): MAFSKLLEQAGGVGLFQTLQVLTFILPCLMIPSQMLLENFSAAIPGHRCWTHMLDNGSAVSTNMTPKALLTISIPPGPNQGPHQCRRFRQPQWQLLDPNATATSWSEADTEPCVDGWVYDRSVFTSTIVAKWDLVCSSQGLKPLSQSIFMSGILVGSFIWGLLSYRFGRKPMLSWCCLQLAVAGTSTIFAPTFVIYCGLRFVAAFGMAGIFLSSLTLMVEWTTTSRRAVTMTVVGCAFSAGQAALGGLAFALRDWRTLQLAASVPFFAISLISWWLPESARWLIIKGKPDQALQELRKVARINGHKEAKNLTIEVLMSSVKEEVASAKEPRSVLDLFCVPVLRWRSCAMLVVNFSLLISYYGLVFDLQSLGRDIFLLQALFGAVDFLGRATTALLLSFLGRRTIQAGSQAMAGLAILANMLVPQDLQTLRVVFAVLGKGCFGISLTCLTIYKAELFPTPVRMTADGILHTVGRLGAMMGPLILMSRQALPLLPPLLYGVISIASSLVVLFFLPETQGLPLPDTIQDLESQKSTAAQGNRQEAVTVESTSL
In words: MDCK-OAT4 TH uptake assay with 125I-T4 tracer. The note with it: 10 nM T4, 20 min; for 125I-T4 uptake compared to the vehicle control (range finding): single concentration 10 or 100 µM, below 80% = positive hit; for T4 uptake inhibition BMC20 (M), [CI]: concentration that inhibits 125I-T4 uptake by 20%, brackets = 95% CI. In kind it is cell-based. The method, then: Subsequently OAT4 in pENTR™/D-TOPO® Vector was shuffled into the pLenti6/V5-DEST vector (Thermo Fisher) using Gateway™ LR Clonase™ II Enzyme mix (Thermo Fisher) according to the manufacture’s protocol.
To generate an OAT4 stable cell line, MDCK-1 cells were plated in 12-well plates with full growth medium and transduced with fresh viral supernatants in the absence of antibiotics in medium. After 2 days, MDCK-1 cells transduced with OAT4 (MDCK-OAT4) or empty vector (MDCK-DEST) were selected in full growth medium supplemented with 2 µg/mL blasticidin and further maintained under blasticidin selection.
as §1, §2
as §3, with “chemical. Each individual experiment contained three technical replicates of each control and concentration tested.” for “chemical.”
as §4

Another data set deals with MDCK-OAT4 cells. Put plainly: CellTiter-Glo luminescent cell viability assay in MDCK-OAT4 cells. The note with it: concentration that inhibits cell viability by 10%; MDCK-OAT4 cells, 20 min exposure. The method, then:
as §5
Figure S2. […] Blue dots indicate the plate medians from three or four independent experiments, all control and chemical concentrations were tested in triplicates per plate. The black line indicates the best-fit concentrations response curve, the dotted line the corresponding 95% confidence interval.
For orientation: Cellular ATP, detected with luciferase, serves as a proxy for viable cell number.

Data set [2] deals with oatp1c1. Set-up: method as in Westholm et al. (2009). The note with it: T4 1 nM; ref Westholm et al. (2009); read-out: IC50 of T4 transmembrane transport inhibition; cited from earlier work.
Where [3] appears, read: concentration that inhibits 125I-T4 uptake by 20%, 10 nM T4, 30 min, brackets = 95% CI.

For the molecule `CC(C)(c1ccc(O)cc1)c1ccc(O)cc1` [Bisphenol A, Bisphenol-A], at OATP1C1 [1] (setting [3]), the “T4 uptake inhibition BMC20 (M), [CI]” value was 1.90E−05 [1.28E−05; 2.83E−05] M. Besides, in the data set with CHO-K1 OATP1C1 cells, the cytotoxic effects entry was “confounded by cytotoxic effects” and the “Cytotoxicity IC10” value stood at 4.34 µM.
For the molecule `Oc1cc(Cl)ccc1Oc1ccc(Cl)cc1Cl` [Triclosan], the “T4 uptake inhibition BMC20 (M), [CI]” value at OATP1C1 [1] was 2.30E−06 [1.38E−06; 3.83E−06] M. Also, in the data set on CHO-K1 OATP1C1 cells, the cytotoxic effects entry is reported as “confounded by cytotoxic effects” and the “Cytotoxicity IC10” value worked out at 0.378 µM.
On to `O=S(=O)(c1ccc(O)cc1)c1ccc(O)cc1` [Bisphenol S, Bisphenol-S], for which the “125I-T4 uptake compared to the vehicle control (range finding)” value on OAT4 is reported as no less than 80%.
`Oc1ccc(C2(c3ccc(O)cc3)CCCCC2)cc1` [Bisphenol Z, Bisphenol-Z]: the “Cytotoxicity IC10” value in the data set on CHO-K1 OATP1C1 cells was greater than 100 µM.
With “β-Estradiol-3-sulfate [ß-Estrone-3-sulfate, reference compound]”, at OAT4, the “T4 uptake inhibition BMC20 (M), [CI]” value was 1.55E−06 [5.32E−07; 4.51E−06] M and the “125I-T4 uptake compared to the vehicle control (range finding)” value is on record as “below 80%”.
With `[CH3][Hg][Cl]` [MeHg, Methyl mercury], the “125I-T4 uptake compared to the vehicle control (range finding)” value at OATP1C1 [1] (single concentration 10 or 100 µM, 10 nM T4, 30 min, below 80% = positive hit) is on record as no less than 80%; at OAT4 it was no less than 80%.
Regarding `O=C(O)CSc1nnc(Br)n1-c1ccc(C2CC2)c2ccccc12` [Lesinurad, reference compound], the “T4 uptake inhibition BMC20 (M), [CI]” value on OATP1C1 [1] (setting [3]) was 4.34E−07 [1.97E−07; 9.56E−07] M. Further, the “Cytotoxicity IC10” value in the data set with CHO-K1 OATP1C1 cells and in the data set with MDCK-OAT4 cells was greater than 100 µM each time.
Consider `O=C(O)Cc1ccccc1Nc1c(Cl)cccc1Cl` [Diclofenac, reference compound], for which the “T4 uptake inhibition BMC20 (M), [CI]” value at OAT4 is 3.22E−06 [6.39E−07; 1.62E−05] M. For the same molecule, in the data set on oatp1c1 [2], the IC50 – broadly, the concentration needed to halve the response being measured – was 4 µM.
For the molecule `NC(Cc1cc(I)c(Oc2cc(I)c(O)c(I)c2)c(I)c1)C(=O)O` (stereo not drawn) [T4, Thyroxine, reference compound], on OATP1C1 [1] (1 µM unlabeled T4), the “uptake of 125I-T4 with excess of unlabeled T4” value was “quenched the uptake”.

Source of the values: paper PMC11324666, “Two novel in vitro assays to screen chemicals for their capacity to inhibit thyroid hormone transmembrane transporter proteins OATP1C1 and OAT4” (Archives of Toxicology, 2024).
